This is an account of results in ChEMBL document CHEMBL4346718, “Cucurbitacins inspired organic synthesis: Potential dual inhibitors targeting EGFR - MAPK pathway” (Eur J Med Chem, 2019).

In general, IC50 refers to the point on the concentration scale where inhibition reaches its midpoint. In general, inhibition refers to the change of the read-out against control, counted positive when it falls.

Activity calls are given as the source filed them. The rule behind the calls is not given here.

Experiment [1] deals with HepG2. Kind of experiment: Antiproliferative activity against human HepG2 cells assessed as reduction in cell growth incubated for 48 hrs by MTT assay. It is filed as functional, cell-based. The conditions noted are these: HepG2, 48 h.
Experiment [2] deals with HepG2. The experiment can be described thus: Induction of apoptosis in human HepG2 cells assessed as increase in cleaved caspase-9 level at 2 uM incubated for 48 hrs by Western blot analysis. Format: functional, cell-based.
Experiment [3] concerns HepG2. Kind of experiment: Induction of cell cycle arrest in human HepG2 cells assessed as accumulation at G1 phase at 1 uM incubated for 24 hrs by flow cytometry analysis (reference value: 32.3%). It is filed as functional. On the technique in general: Flow cytometry measures light scatter and fluorescence of single cells or particles in a stream.
Experiment [4] concerns HepG2. The experiment can be described thus: Induction of cell cycle arrest in human HepG2 cells assessed as accumulation at G2 phase at 2 uM incubated for 24 hrs by flow cytometry analysis (reference value: 37.5%). It is filed as functional.
In experiment [5] the test system is HepG2. Kind of experiment: Induction of cell cycle arrest in human HepG2 cells assessed as accumulation at S phase at 4 uM incubated for 24 hrs by flow cytometry analysis (reference value: 26.1%). It is filed as functional.
The subject of experiment [6] is HepG2. The experiment can be described thus: Inhibition of EGFR/MAPK signalling pathway in human HepG2 cells assessed as reduction in phosphorylation of B-RAF at 3 uM incubated for 24 hrs by Western blot analysis. It is filed as cell-based. In general terms: A western blot detects proteins with antibodies after separation by electrophoresis.
Experiment [7] relates to HepG2. The experiment can be described thus: Inhibition of EGFR/MAPK signalling pathway in human HepG2 cells assessed as reduction in phosphorylation of MEK at 3 uM incubated up to 48 hrs by Western blot analysis. Format: cell-based.
The subject of experiment [8] is HepG2. The experiment can be described thus: Inhibition of EGFR/MAPK signalling pathway in human HepG2 cells assessed as reduction in phosphorylation of ERK 1/2 at 3 uM incubated up to 48 hrs by Western blot analysis. It is filed as cell-based.
Experiment [9] has as its system HepG2. Kind of experiment: Inhibition of EGFR/MAPK signalling pathway in human HepG2 cells assessed as reduction in phosphorylation of EGFR at 3 uM incubated for 48 hrs by Western blot analysis. It is filed as cell-based.
Experiment [10] has as its system HepG2. Kind of experiment: Induction of cell cycle arrest in human HepG2 cells assessed as accumulation at G2 phase at 1 uM incubated for 24 hrs by flow cytometry analysis (reference value: 37.5%). It is filed as functional.
The test system of experiment [11] is HepG2. The experiment can be described thus: Induction of cell cycle arrest in human HepG2 cells assessed as accumulation at G1 phase at 2 uM incubated for 24 hrs by flow cytometry analysis (reference value: 32.3%). Format: functional.
Experiment [12] relates to HepG2. The experiment can be described thus: Induction of cell cycle arrest in human HepG2 cells assessed as accumulation at S phase at 1 uM incubated for 24 hrs by flow cytometry analysis (reference value: 26.1%). Format: functional.
For experiment [13], the system named is HepG2. The experiment can be described thus: Induction of apoptosis in human HepG2 cells assessed as increase in cleaved caspase-3 level at 2 uM incubated for 48 hrs by Western blot analysis. Format: functional, cell-based.
Experiment [14] deals with HepG2. The experiment can be described thus: Induction of apoptosis in human HepG2 cells assessed as increase in cleaved PARP-1 level at 2 uM incubated for 48 hrs by Western blot analysis. It is filed as functional, cell-based.
The subject of experiment [15] is HepG2. Kind of experiment: Induction of cell cycle arrest in human HepG2 cells assessed as accumulation at G2 phase at 4 uM incubated for 24 hrs by flow cytometry analysis (reference value: 37.5%). It is filed as functional.
The subject of experiment [16] is HepG2. Kind of experiment: Inhibition of cell migration in human HepG2 cells at IC50 incubated for 48 hrs by phase contrast microscopy. Format: functional.
The subject of experiment [17] is HepG2. Kind of experiment: Inhibition of EGFR/MAPK signalling pathway in human HepG2 cells assessed as reduction in ELK phosphorylation incubated for 24 hrs by Western blot analysis. It is filed as cell-based.
In experiment [18] the test system is HepG2. Kind of experiment: Induction of cell cycle arrest in human HepG2 cells assessed as accumulation at S phase at 2 uM incubated for 24 hrs by flow cytometry analysis (reference value: 26.1%). Format: functional.
Experiment [19] concerns HepG2. The experiment can be described thus: Induction of cell cycle arrest in human HepG2 cells assessed as accumulation at G1 phase at 4 uM incubated for 24 hrs by flow cytometry analysis (reference value: 32.3%). Format: functional.
Experiment [20] deals with HepG2. The experiment can be described thus: Inhibition of EGFR/MAPK signalling pathway in human HepG2 cells assessed as reduction in phosphorylation of ERK 1/2 at 2 uM incubated up to 48 hrs by Western blot analysis. Format: cell-based.
Experiment [21] relates to HepG2. Kind of experiment: Inhibition of EGFR/MAPK signalling pathway in human HepG2 cells assessed as reduction in phosphorylation of MEK at 2 uM incubated up to 48 hrs by Western blot analysis. It is filed as cell-based.
Experiment [22] relates to HepG2. The experiment can be described thus: Inhibition of EGFR/MAPK signalling pathway in human HepG2 cells assessed as reduction in phosphorylation of EGFR at 2 uM incubated for 2 hrs by Western blot analysis. Format: cell-based.
In experiment [23] the test system is HepG2. Kind of experiment: Inhibition of EGFR/MAPK signalling pathway in human HepG2 cells assessed as reduction in phosphorylation of B-RAF at 2 uM incubated for 8 hrs by Western blot analysis. It is filed as cell-based.

On to `COc1ccc(/C=C/C(=O)[C@](C)(O)C2=CC[C@H]3[C@@H]4CCc5cc(OC)ccc5[C@H]4CC[C@]23C)cc1`, for which the IC50 in the experiment on HepG2 [1] was 2 µM.

On to `COc1ccc(/C=C/C(=O)[C@@](C)(O)C2=CC[C@H]3[C@@H]4CCc5cc(OC)ccc5[C@H]4CC[C@]23C)cc1`, for which the IC50 with HepG2 [1] is 16 µM.

Take `COc1ccc2c(c1)CC[C@@H]1[C@@H]2CC[C@]2(C)C([C@@](C)(O)C(=O)/C=C/c3ccc(Br)o3)=CC[C@@H]12`: the IC50 with HepG2 [1] came out at 6 µM.

Regarding `COc1ccc2c(c1)CC[C@@H]1[C@@H]2CC[C@]2(C)C([C@@](C)(O)C(=O)/C=C/c3ccc(C(F)(F)F)cc3)=CC[C@@H]12`, in the experiment with HepG2 [1], the IC50 worked out at 2 µM.

In the case of `COc1ccc2c(c1)CC[C@@H]1[C@@H]2CC[C@]2(C)C([C@@](C)(O)C(=O)/C=C/c3ccc(Br)cc3)=CC[C@@H]12`, in the experiment on HepG2 [1], the IC50 amounted to 32 µM.

As to `COc1ccc2c(c1)CC[C@@H]1[C@@H]2CC[C@]2(C)C([C@@](C)(O)C(=O)/C=C/C(C)(C)O)=CC[C@@H]12`, the outcome with HepG2 [2], in the experiment with HepG2 [13] and with HepG2 [14] was Active. Moreover, the IC50 in the experiment on HepG2 [1] turned out to be 2 µM. The Activity with HepG2 [3] is 36.1%; in the experiment on HepG2 [4] it was 34.1%; in the experiment with HepG2 [5] it was 37.4%; with HepG2 [10], 38%; in the experiment on HepG2 [11], 37.6%; in the experiment with HepG2 [12], 23.4%. Besides, the Activity in the experiment on HepG2 [15] was 21.1%; with HepG2 [18], 23.2%; with HepG2 [19], 41.1%. In addition, the inhibition result with HepG2 [6], with HepG2 [7], in the experiment with HepG2 [8] and with HepG2 [17] was “Active” throughout. Also, the inhibition in the experiment on HepG2 [9] stood at 90%. The “inhibition (INH)” value in the experiment on HepG2 [16] came out at 100%.

Take `COc1ccc2c(c1)CC[C@@H]1[C@@H]2CC[C@]2(C)C([C@](C)(O)C(=O)/C=C/c3ccc(F)cc3)=CC[C@@H]12`: the IC50 in the experiment on HepG2 [1] is 8 µM.

Regarding `COc1ccc2c(c1)CC[C@@H]1[C@@H]2CC[C@]2(C)C([C@@](C)(O)C(=O)/C=C/c3ccc(Br)s3)=CC[C@@H]12`, the IC50 in the experiment with HepG2 [1] was determined as 0.7 µM.

In the case of `COc1ccc2c(c1)CC[C@@H]1[C@@H]2CC[C@]2(C)C([C@@](C)(O)C(=O)/C=C/c3ccc(F)cc3)=CC[C@@H]12`, the IC50 with HepG2 [1] was 7 µM.

For `COc1ccc2c(c1)CC[C@@H]1[C@@H]2CC[C@]2(C)C([C@](C)(O)C(=O)/C=C/c3ccc(C(F)(F)F)cc3)=CC[C@@H]12`, the concentration for half-maximal inhibition (IC50) in the experiment with HepG2 [1] amounted to 3 µM.

As for `COc1ccc2c(c1)CC[C@@H]1[C@@H]2CC[C@]2(C)C([C@](C)(O)C(=O)/C=C/C(C)(C)O)=CC[C@@H]12`, the IC50 in the experiment with HepG2 [1] was 3 µM. The inhibition result in the experiment with HepG2 [20], with HepG2 [21], in the experiment with HepG2 [22], in the experiment with HepG2 [23] and in the experiment with HepG2 [16] was “Active” throughout.

Turning to `COc1ccc2c(c1)CC[C@@H]1[C@@H]2CC[C@]2(C)C([C@](C)(O)C(=O)/C=C/c3ccc(Br)s3)=CC[C@@H]12`, the IC50 in the experiment with HepG2 [1] was determined as 11 µM.

Consider `COc1ccc2c(c1)CC[C@@H]1[C@@H]2CC[C@]2(C)C([C@](C)(O)C(=O)/C=C/c3ccc([N+](=O)[O-])cc3)=CC[C@@H]12`, for which, in the experiment on HepG2 [1], the IC50 turned out to be 29 µM.

As for `COc1ccc2c(c1)CC[C@@H]1[C@@H]2CC[C@]2(C)C([C@@](C)(O)C(=O)/C=C/c3ccc([N+](=O)[O-])cc3)=CC[C@@H]12`, the IC50 in the experiment on HepG2 [1] stood at 20 µM.

`C#Cc1cccc(Nc2ncnc3cc(OCCOC)c(OCCOC)cc23)c1` [ERLOTINIB]: the “inhibition (INH)” value in the experiment on HepG2 [16] was 93%.

In the case of `COc1ccc2c(c1)CC[C@@H]1[C@@H]2CC[C@]2(C)C([C@@](C)(O)C(=O)/C=C/c3ccc(Cl)cc3)=CC[C@@H]12`, the IC50 in the experiment on HepG2 [1] was found to be 25 µM.
